The record followed here is patent publication US6967196B1, “Sulfonamide compounds and uses thereof” (Bristol-Myers Squibb Company, priority 1999, dated 2005).

Structures can show the parent of a compound that is named as a salt.

The subject of the first assay is amyloid β production in transfected H4 (human neuroglioma) cells stably expressing APP constructs. Put plainly: In vitro cell-based assay of inhibitors of amyloid β production (ELISA). Particulars: Homo sapiens, 16 h, transfected H4 cells stably expressing APP; approximately 16 hours incubation; amyloid β in medium by ELISA; read-out: ACTIVITY (IC50, inhibition of amyloid β production). The procedure, abridged:
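Plate wt/variant APP cells; ≥6 h later swap to medium + compound (10-100 μM screen); incubate ~16 h; sample medium; Aβ ELISA with C-terminal capture / N-terminal detection Abs; quantify vs Aβ standard curve.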
A general note: ELISA stands for enzyme-linked immunosorbent assay.
Take `CC#CCCCN(Cc1ccccc1OCCCN1CCCCC1)S(=O)(=O)c1ccc(Cl)cc1` [Example 842, 4-chloro-N-(4-hexynyl)-N-{2-[3-(1-piperidinyl)propoxy]benzyl}benzenesulfonamide hydrochloride]: the IC50 (in general, the midpoint of a concentration-inhibition curve) was 100 to 500 nM.
On the same count and under the same terms, the value for `O=C(c1ccc(-c2ccccc2)cc1)N1CCCCC1CCOc1ccccc1CN(c1cc(F)ccc1F)S(=O)(=O)c1ccc(Cl)cc1` (centres unmarked) [Example 845, N-(2-{2-[1-([1,1′-biphenyl]-4-ylcarbonyl)-2-piperidinyl]ethoxy}benzyl)-4-chloro-N-(2,5-difluorophenyl)benzenesulfonamide] was 100 to 500 nM; that for `O=S(=O)(c1ccc(Cl)cc1)N(Cc1ccccc1OCCCN1CCCCC1)CC1CCCC1` [Example 848, 4-chloro-N-(cyclopentylmethyl)-N-{2-[3-(1-piperidinyl)propoxy]benzyl}benzenesulfonamide hydrochloride] was 100 to 500 nM.
The same measure, in the same setting: under `CCN(CC)C(=O)N(C)CCCOc1ccccc1CN(c1cc(F)ccc1F)S(=O)(=O)c1ccc(Cl)cc1` [Example 849, 4-chloro-N-(2-{3-[[(diethylamino)carbonyl](methyl)amino]propoxy}benzyl)-N-(2,5-difluorophenyl)benzenesulfonamide] stands 100 to 500 nM.
Regarding `O=S(=O)(c1ccc(Cl)cc1)N(Cc1ccccc1OCCSC1CCCCC1)c1cc(F)ccc1F` [Example 850, 4-chloro-N-{2-[2-(cyclohexylsulfanyl)ethoxy]benzyl}-N-(2,5-difluorophenyl)benzenesulfonamide], the IC50 is 100 to 500 nM.
Same read-out and setting: the value for `O=S(=O)(c1ccc(Cl)cc1)N(Cc1ccccc1OCCCN1CCCCCC1)c1ccccc1` [Example 851, N-{2-[3-(1-azepanyl)propoxy]benzyl}-4-chloro-N-phenylbenzenesulfonamide hydrochloride] was 100 to 500 nM; that for `O=S(=O)(c1ccc(Cl)cc1)N(Cc1ccccc1OCCCN1CCCCC1)C1CCCCC1` [Example 852, 4-chloro-N-cyclohexyl-N-{2-[3-(1-piperidinyl)propoxy]benzyl}benzenesulfonamide hydrochloride] was 100 to 500 nM; that for `C[C@H](c1ccccc1Br)N(c1cc(F)ccc1F)S(=O)(=O)c1ccc(Cl)cc1` [Example 855, N-[(1R)-1-(2-bromophenyl)ethyl]-4-chloro-N-(2,5-difluorophenyl)benzenesulfonamide] was 100 to 500 nM.
Still for that read-out and setting: under `O=S(=O)(c1ccc(Cl)cc1)N(Cc1ccccc1OCCCN1CCOCC1)c1ccccc1` [Example 859, 4-chloro-N-{2-[3-(4-morpholinyl)propoxy]benzyl}-N-phenylbenzenesulfonamide hydrochloride] stands 100 to 500 nM; under `Cc1cccc(C(=O)N2CCCCC2CCOc2ccccc2CN(c2cc(F)ccc2F)S(=O)(=O)c2ccc(Cl)cc2)c1` (centres unmarked) [Example 860, 4-chloro-N-(2,5-difluorophenyl)-N-(2-{2-[1-(3-methylbenzoyl)-2-piperidinyl]ethoxy}benzyl)benzenesulfonamide], 100 to 500 nM.
The same measure, in the same setting: the value for `CCC1CCCCN1CCCOc1ccccc1CN(c1ccccc1)S(=O)(=O)c1ccc(Cl)cc1` (centres unmarked) [Example 865, 4-chloro-N-{2-[3-(2-ethyl-1-piperidinyl)propoxy]benzyl}-N-phenylbenzenesulfonamide hydrochloride] was 100 to 500 nM; that for `O=S(=O)(c1ccc(Cl)cc1)N(Cc1ccccc1OCCCN1CCCCC1)c1ccccc1Br` [Example 866, N-(2-bromophenyl)-4-chloro-N-{2-[3-(1-piperidinyl)propoxy]benzyl}benzenesulfonamide hydrochloride] was 100 to 500 nM.
As for `O=S(=O)(c1ccc(Cl)cc1)N(Nc1cc(F)ccc1F)[C@H](CO)c1ccccc1` [Example 868, 4-chloro-N-(2,5-difluoroanilino)-N-[(1S)-2-hydroxy-1-phenylethyl]benzenesulfonamide], the IC50 lay in the range of 100 to 500 nM.
Still for that read-out and setting: under `O=S(=O)(c1ccc(Cl)cc1)N(Cc1ccccc1OCCCSC1CCCCC1)c1cc(F)ccc1F` [Example 869, 4-chloro-N-{2-[3-(cyclohexylsulfanyl)propoxy]benzyl}-N-(2,5-difluorophenyl)benzenesulfonamide] stands 100 to 500 nM; under `COc1ccc(S(=O)(=O)CCCOc2ccccc2CN(Nc2cc(F)ccc2F)S(=O)(=O)c2ccc(Cl)cc2)cc1` [Example 871, 4-chloro-N-(2,5-difluoroanilino)-N-(2-{3-[(4-methoxyphenyl)sulfonyl]propoxy}benzyl)benzenesulfonamide], 100 to 500 nM; under `C=Cc1ccccc1[C@@H](C)N(c1cc(F)ccc1F)S(=O)(=O)c1ccc(Cl)cc1` [Example 874, 4-chloro-N-(2,5-difluorophenyl)-N-[(1R)-1-(2-vinylphenyl)ethyl]benzenesulfonamide], 100 to 500 nM.
Still for that read-out and setting: under `Cc1ccccc1N(Cc1ccccc1OCCCN1CCCCC1)S(=O)(=O)c1ccc(Cl)cc1` [Example 875, 4-chloro-N-(2-methylphenyl)-N-{2-[3-(1-piperidinyl)propoxy]benzyl}benzenesulfonamide hydrochloride] stands 100 to 500 nM; under `O=S(=O)(c1ccc(Cl)cc1)N(Cc1ccccc1OCCCN1CCC2(CC1)OCCO2)c1ccccc1` [Example 877, 4-chloro-N-{2-[3-(1,4-dioxa-8-azaspiro[4.5]dec-8-yl)propoxy]benzyl}-N-phenylbenzenesulfonamide], 100 to 500 nM.
With `CCC(c1ccccc1OCCCN1CCCCC1)N(c1cc(F)ccc1F)S(=O)(=O)c1ccc(Cl)cc1` (centres unmarked) [Example 878, 4-chloro-N-(2,5-difluorophenyl)-N-(1-{2-[3-(1-piperidinyl)propoxy]phenyl}propyl)benzenesulfonamide hydrochloride], the concentration for half-maximal inhibition (IC50) is > 500 nM.
Still for that read-out and setting: under `COc1ccc(S(=O)(=O)N(Cc2ccccc2OCCCN2CCCCC2)c2cc(F)ccc2F)cc1` [Example 879, N-(2,5-difluorophenyl)-4-methoxy-N-{2-[3-(1-piperidinyl)propoxy]benzyl}benzenesulfonamide hydrochloride] stands > 500 nM.
With `O=S(=O)(c1ccc(Cl)cc1)N(Cc1ccccc1OCCCN1CCC(Cc2ccccc2)CC1)c1ccccc1` [Example 880, N-{2-[3-(4-benzyl-1-piperidinyl)propoxy]benzyl}-4-chloro-N-phenylbenzenesulfonamide hydrochloride], the IC50 is > 500 nM.
On the same count and under the same terms, under `O=S(=O)(c1ccc(Cl)cc1)N(Cc1ccccc1OCCCn1ccnc1)c1ccccc1` [Example 882, 4-chloro-N-{2-[3-(1H-imidazol-1-yl)propoxy]benzyl}-N-phenylbenzenesulfonamide hydrochloride] stands > 500 nM; under `Cc1ccc(C(=O)N2CCCCC2CCOc2ccccc2CN(c2cc(F)ccc2F)S(=O)(=O)c2ccc(Cl)cc2)cc1` (centres unmarked) [Example 884, 4-chloro-N-(2,5-difluorophenyl)-N-(2-{2-[1-(4-methylbenzoyl)-2-piperidinyl]ethoxy}benzyl)benzenesulfonamide], > 500 nM; under `CC(COc1ccccc1C(C)N(c1cc(F)ccc1F)S(=O)(=O)c1ccc(Cl)cc1)N(C)S(=O)(=O)c1ccc(Cl)cc1` (centres unmarked) [Example 885, 4-chloro-N-[1-(2-{2-[[(4-chlorophenyl)sulfonyl](methyl)amino]propoxy}phenyl)ethyl]-N-(2,5-difluorophenyl)benzenesulfonamide], > 500 nM.
On to `O=S(=O)(c1ccc(Cl)cc1)N(Cc1ccccc1)Cc1ccccc1OCCCN1CCCCC1` [Example 886, N-benzyl-4-chloro-N-{2-[3-(1-piperidinyl)propoxy]benzyl}benzenesulfonamide hydrochloride], for which the IC50 was > 500 nM.
Same read-out and setting: the value for `O=S(=O)(c1ccc(Cl)cc1)N(Cc1ccccc1OCCCN1CCCCC1)c1cc(Cl)ccc1O` [Example 887, 4-chloro-N-(5-chloro-2-hydroxyphenyl)-N-{2-[3-(1-piperidinyl)propoxy]benzyl}benzenesulfonamide hydrochloride] was > 500 nM.
On the same count and under the same terms, the value for `CC(C)N(C(=O)N(C)CCOc1ccccc1C(C)N(c1cc(F)ccc1F)S(=O)(=O)c1ccc(Cl)cc1)C(C)C` (centres unmarked) [Example 888, 4-chloro-N-(2,5-difluorophenyl)-N-[1-(2-{2-[[(diisopropylamino)carbonyl](methyl)amino]ethoxy}phenyl)ethyl]benzenesulfonamide] was > 500 nM; that for `CN1CCCCC1CCOc1ccccc1CN(c1ccccc1)S(=O)(=O)c1ccc(Cl)cc1` (centres unmarked) [Example 889, 4-chloro-N-{2-[2-(1-methyl-2-piperidinyl)ethoxy]benzyl}-N-phenylbenzenesulfonamide hydrochloride] was > 500 nM; that for `COc1ccc(C(=O)N2CCCCC2CCOc2ccccc2CN(c2cc(F)ccc2F)S(=O)(=O)c2ccc(Cl)cc2)cc1OC` (centres unmarked) [Example 890, 4-chloro-N-(2,5-difluorophenyl)-N-(2-{2-[1-(3,4-dimethoxybenzoyl)-2-piperidinyl]ethoxy}benzyl)benzenesulfonamide] was > 500 nM.

The same assay, now with this note: transfected H4 cells stably expressing APP; approximately 16 hours incubation; amyloid β in medium by ELISA; hydrochloride; read-out: ACTIVITY (IC50, inhibition of amyloid β production).
Take `C[C@@H](c1ccccc1OCCCn1ccnc1)N(c1cc(F)ccc1F)S(=O)(=O)c1ccc(Cl)cc1` [Example 861, 4-chloro-N-(2,5-difluorophenyl)-N-((1S)-1-{2-[3-(1H-imidazol-1-yl)propoxy]phenyl}ethyl)benzenesulfonamide hydrochloride]: the IC50 was 100 to 500 nM.
On the same count and under the same terms, under `CCC[C@@H](C)N(Cc1ccccc1OCCCN1CCCCC1)S(=O)(=O)c1ccc(Cl)cc1` [Example 867, 4-chloro-N-[(1R)-1-methylbutyl]-N-{2-[3-(1-piperidinyl)propoxy]benzyl}benzenesulfonamide hydrochloride] stands 100 to 500 nM.

The same assay, now with this note: transfected H4 cells stably expressing APP; approximately 16 hours incubation; amyloid β in medium by ELISA; read-out: ACTIVITY (IC50, inhibition of amyloid β production).
With `O=S(=O)(c1ccc(Cl)cc1)N(Cc1ccccc1OCCC[N+]1([O-])CCCCC1)c1ccccc1` [Example 883], the IC50 is > 500 nM.
